What was measured:
morphine analgesia = experiment: Increase in analgesia of morphine, Tail Flick Test (Experiment 1); type: in vivo, rats; details: for percentage variation of latency of pain sensation / M (10-90) ± SE, mean percentage variation of latency: compound 10 mg/kg i.p. + morphine 2 mg/kg; for M (10-90) ± SE, mean percentage variation of latency: mean 10-90 min; for Power ratio with respect to morphine alone: rat, in vivo
Procedure: Experiment No: 1 Increase in analgesia of analgesic-narcotic drugs in rats by the Tail Flick Test
The method is that described by Harris et al. (J. Pharmacol. Exp. Ther. 143 (1964) 141-148).
Male rats are used having a weight of about 150-200 g which have not fasted. A point on the tail is chosen and irradiated by a heat source (75° C.) and the time (in seconds) for which the animal remains without moving its tail is measured.
A maximum period of time of 8 seconds under the heat source is chosen, after which the animal is, in any case, removed to avoid tissue damage. The measurement is effected before (controls) and after treatment with the drugs.
The percentage variation is calculated for each individual animal by the following formula: [formula] The measurements were carried out 10, 20, 30, 45, 60 and 90 minutes after treatment with the analgesics.

[1] = system: CCK-8 induced contraction of guinea pig gall bladder; experiment: Anti-CCK activity on gall bladder strips in vitro; details: CCK-8 10 ng/ml
Procedure: ANTI-CCK ACTIVITY ON GUINEA PIG GALL BALDDERS IN VITRO
A longitudinal strip of guinea pig gall bladder was placed in a bath of isolated members in the presence of Krebs at a temperature of 32° C. with continuous oxygenation with an oxygen-CO2 mixture (95-5V/V).
The isometric contractions were detected by means of a force transducer and recorded.
The gall bladder was made to contract with the use of a 10 ng/ml concentration of CCK-8; the antagonistic activity of the compounds of the invention on the contracting effect of the CCK was determined with the use of different concentrations and the ED 50 value, that is the concentration in μg/ml of a compound which could antagonise 50% of the contracting effect of the CCK, was determined.

Structure (SMILES)	percentage variation of latency of pain sensation (morphine analgesia; 10') [%]	percentage variation of latency of pain sensation (morphine analgesia; 20') [%]	percentage variation of latency of pain sensation (morphine analgesia; 30') [%]	percentage variation of latency of pain sensation (morphine analgesia; 45') [%]	percentage variation of latency of pain sensation (morphine analgesia; 60') [%]	percentage variation of latency of pain sensation (morphine analgesia; 90') [%]	M (10-90) ± SE, mean percentage variation of latency (morphine analgesia) [%]	Power ratio with respect to morphine alone (morphine analgesia)	ED50 (concentration antagonising 50% of contracting effect of CCK-8) [1] [µg/mL]
CCCN(CCC)C(=O)C(CCC(=O)O)NC(=O)c1cc(I)c(I)c(I)c1 (stereo not drawn) [Compound C-19]	3.6 ± 12.0	42.8 ± 19.0	58.4 ± 21.0	66.1	57.1 ± 18.0	35.6 ± 20.0	43.9 ± 22.7	1.47	> 200
CCCN(CCC)C(=O)C(CCC(=O)O)NC(=O)c1ccc(C)cc1 (stereo not drawn) [Compound C-29]	48.7 ± 20	75.5	73.6 ± 11	70.0 ± 19	47.3 ± 23	6.0 ± 14	53.5	1.80	262
O=C(O)CCC(NC(=O)c1ccc(Cl)c(Cl)c1)C(=O)N1CCCCC1 (stereo not drawn) [Compound C-26]	50.1 ± 17.0	80.3 ± 20.0	84.7 ± 11.0	71.8 ± 15.0	32.2	4.9 ± 6.0	54.0 ± 31.1	1.81	146.5
CCCN(CCC)C(=O)CCC(NC(=O)c1ccc(C)c(C)c1)C(=O)O [Compound D-15]	43.5 ± 16	48.7 ± 18	72.6	60.1 ± 23	59.2 ± 18	43.5 ± 24	54.6 ± 11	1.83	245.0
CCCCNC(=O)C(CCC(=O)O)NC(=O)c1ccc(C)c(C)c1 (stereo not drawn) [Compound C-42]	49.0 ± 31	65.9 ± 24	80.1 ± 9	59.1 ± 20	33.5 ± 20	61.4 ± 12	58.2 ± 16	1.95	50.1
CCCCCCN(CCCCCC)C(=O)C(CCC(=O)O)NC(=O)c1ccc(Cl)c(Cl)c1 (stereo not drawn) [Compound C-8]	67.4 ± 20.5	74.1 ± 15.8	80.0 ± 12.9	85.9 ± 14.1	87.1	60.4 ± 17.3	75.8 ± 10.6	2.54	0.93
CCCN(CCC)C(=O)C(CC(=O)O)NC(=O)c1ccccc1Br (stereo not drawn) [Compound C-16]	43.2 ± 11.0	88.7 ± 10.0	54.8 ± 5.8	47.3	26.1 ± 11.5	22.2 ± 16.7	47.0 ± 24.0	1.58	> 200
CCCN(CCC)C(=O)C(CCC(=O)O)NC(=O)c1ccc(F)cc1 (stereo not drawn) [Compound C-12]	54.4 ± 16.7	76.3	61.6 ± 16.0	63.9 ± 20.0	65.2 ± 17.0	11.6 ± 14.0	55.5	1.86	64.7
CCCN(CCC)C(=O)C(CCC(=O)O)NC(=O)c1ccc(Cl)c(Cl)c1 (stereo not drawn) [Compound C-5]	34.5 ± 17.4	21.4 ± 16.0	59.5 ± 21.1	84.7	63.9 ± 18.5	40.1 ± 23.9	50.7 ± 23.0	1.70	4.2
CCCCN(CCCC)C(=O)C(CCC(=O)O)NC(=O)c1cc(Cl)cc(Cl)c1 (stereo not drawn) [Compound C-9]	67.6 ± 11.0	65.8	71.9 ± 17.5	59.1 ± 20.0	52.1 ± 22.0	40.4 ± 18.0	59.5 ± 11.6	2.00	7.40
